Laboratory results taken from article PMC9120013, “Ribosome inhibition by C9ORF72-ALS/FTD-associated poly-PR and poly-GR proteins revealed by cryo-EM” (Nature Communications, 2022).
Read-outs that look alike come from different tables or passages of the source. Ends that are not written are not given here.

Columns and labels:
[1] = target: Oryctolagus cuniculus (rabbit) 80S ribosome (rabbit (Oryctolagus cuniculus)) (UniProt G1SVW5)
[2] = target: Escherichia coli 70S ribosome (E. coli)
rabbit 80S ribosomes = experiment: Kinetic peptidyl transfer (puromycin) assay on rabbit 80S ribosomes; type: biochemical
Source text: To test the effects of PR20 on the mammalian peptidyl transferase, 80S ribosomes were purified from rabbit reticulocyte lysate (Green Hectares) and dissociated into 40S and 60S subunits as described in the section entitled “Cryo-EM complex of mammalian 80S ribosome with PR20”. A model leaderless mRNA fragment placing the AUG codon in the P-site and the UUC codon in the A site (CCAC AUG UUC CCCCCCCCCCCCCCCCCC), was synthesized by IDT. The 80S•mRNA•fMet-tRNA^fMet complex with PRn (where n = 10, 20, or 40) or GR20 was assembled as follows. one micrometer 60S subunit was mixed with the DPR (starting with the initial DPR concentration of 33x relative to its final concentration in the reaction) in Assembly Buffer containing 20 mM Tris-acetate (pH 7.0), 100 mM KOAc, 10 mM Mg(OAc)2, and the mixture was incubated for 5 min at 30 °C. […] 1095 nM [^35S]-fMet-tRNA^fMet and the 60S solution were added (0.5 volumes of the 40S solution), resulting in the following concentrations: 330 nM 60S, 400 nM 40S, 730 nM tRNA, 11 µM mRNA and 11x of final concentration of a DPR in the buffer (20 mM Tris-acetate (pH 7.0), 100 mM KOAc, 10 mM Mg(OAc)2). The solution was incubated for 5 min at 30 °C. The solution was diluted ten times with the same buffer, then puromycin (prepared in the same buffer) was added and time progress curves were recorded.
(§1) The kinetics of puromycin reaction on the 70S or 80S ribosomes were recorded and analyzed essentially as described. An aliquot (4.5 μl) of the complex prior to addition of puromycin was quenched in 30 μl of saturated MgSO4 in 0.1 M NaOAc to represent the zero-time point. Five microliters of 500 µM puromycin (in the same buffer as that used for the ribosomal complex) was added to 45 μl of the complex to initiate the reaction, yielding estimated final concentrations: 30 nM for the ribosome, 1 µM mRNA, 66 nM [^35S]-fMet-tRNA^fMet, 50 µM puromycin, and varying concentrations of PRn and GRn peptides, from 30 nM to 2 μM. After 6, 15, 30, 90 s, and 5, 15, 30, 60, and (for slower reactions) 180 min, 5-μl aliquots were quenched in 30 μl of saturated MgSO4 in 0.1 M NaOAc. All quenched samples were extracted with 700 μl ethyl-acetate. 600 μl of the extract were mixed with 3.5 ml of Econo-Safe scintillation cocktail (RPI), and the amount of released [^35S]-labeled dipeptide was measured for each time point using a scintillation counter (Beckman Coulter, Inc.).
(§2) All time progress curves were recorded in duplicates, using independently prepared 70S or 80S complexes. Reaction rates were calculated using single-exponential or double-exponential (80S complexes) regressions for different concentrations of PRn and GRn using GraphPad Prism 8. Hyperbola fitting in Gnuplot was used to derive apparent Ki-values.

[3] = tested on: translation of nanoluciferase mRNA in rabbit reticulocyte lysates; experiment: Nanoluciferase mRNA translation in rabbit reticulocyte lysate, inhibitor preincubated 5 min before mRNA; type: biochemical; conditions: for IC50: same extracts as the DPR assay, read-out: IC50 in RRL extracts, range stated in the response to reviewers
Source text: Rabbit reticulocyte lysates (RRL, Promega) were used to investigate the inhibition of translation by DPR proteins. We independently monitored translation of two mRNAs encoding non-homologous proteins of different lengths: nanoluciferase[71] and firefly luciferase. To measure the IC50s of the translational inhibitors cycloheximide (Akros Organics), harringtonine (AbCam), GDPCP (Jena Biosciences), PR20 and GR20, we monitored the translation of nanoluciferase mRNA in nuclease-treated RRL (Promega). […] Next, 10 ng/μl (final concentration) 6xhis-Nanoluciferase mRNA flanked with the 5'- and 3'-UTR from rabbit beta-globin[48] was added and the luminescence reactions were continuously measured by an Infinite m1000 pro microplate reader (Tecan) for 15 min at 30 °C. The 1st derivative of the luminescence reactions was determined in Prism 8 (GraphPad Software, LLC) and the maximum was identified and the mean of three maximums from independent experiments for each inhibitor was taken as the rate. The rates were plotted versus inhibitors concentration, and the plots were fitted in Prism 8 (GraphPad Software, LLC) to a 3-parameter inhibition model (Y = baseline + (max-baseline)/(1 + X/IC50)) to obtain the IC50 values where the baseline was constrained to 0. This procedure was modified to separate translation initiation from translation elongation by changing the time of addition of the inhibitors to ~300 s after mRNA addition when RLUs had reached a value of ~50,000. Here, the maximum of the first derivative was taken in the 2nd or later measurement taken after inhibitor addition.
The following additional controls indicate that DPR-induced changes in fluorescence were caused by translation inhibition.

E. coli 70S ribosomes = experiment: Kinetic peptidyl transfer (puromycin) assay on E. coli 70S ribosomes; type: biochemical; conditions: for Ki: n = 2
Experimental: The effects of GRn or PRn on peptide bond formation in E. coli ribosome were tested in an in vitro assay that reacts the 70S ribosome loaded with [^35S]-fMet-tRNA^fMet in the P-site with puromycin, an A-site tRNA mimic, and measures the release of the resulting dipeptide containing formyl-methionine covalently bonded to puromycin, as described. E. coli tRNA^fMet (Chemical Block) was aminoacylated with [^35S]-N-formyl-L-methionine (Perkin Elmer) as described. 70S ribosomes were prepared from E. coli (MRE600) as described. 70S ribosomes were stored in the ribosome-storage buffer (20 mM Tris-HCl, pH 7.0; 100 mM NH4Cl; 20 mM MgCl2) at –80 °C. A model mRNA fragment, containing the Shine-Dalgarno sequence and a spacer to position the AUG codon in the P-site and the UUC codon in the A site (GGCAAGGAGGUAAAAAUGUUC AAAAAA), was synthesized by IDT. 70S•mRNA•fMet-tRNA^fMet complexes with GRn (where n = 4, 10 or 20) or PRn (where n = 4, 10, 20 or 40) were formed as follows. 330 nM 70S ribosomes were incubated with 11 µM mRNA in buffer containing 20 mM Tris-acetate (pH 7.0), 100 mM NH4OAc, 12 mM Mg(OAc)2, for 2 min at 37 °C. 730 nM [^35S]-fMet-tRNA^fMet was added and incubated for 5 min at 37 °C. The solution was diluted 9.6-fold with the same buffer, followed by addition of a GRn or PRn repeat peptide (22x relative to its final concentration). The complex was incubated for 5 min at 37 °C prior to addition of puromycin dissolved in the same buffer (see below).
as §1, §2

[4] = tested on: ribosomes on endogenous beta-globin mRNA in RRL; experiment: Toeprinting of 80S and 4-5-mer polysome fractions on beta-globin mRNA; type: biochemical, rabbit; conditions: for Ratio (START to CDS) / Normalized ratio START/ORF: 80S fraction, primer A, Fig. 2f independent repeat; for Normalized ratio START/ORF: no inhibitor = 1; for normalized ratio START to CDS, MEAN: 4-5-mer, primer B, mean of ten 20 bp windows
Experimental: Toeprinting analyses were carried out similarly to those in refs. [51],[74], using 80S and polysome (4–5-some) fractions collected from polysome profiles as described in “Polysome Profiles” except that reactions were doubled in size (200 μL), performed at 37 °C, and were stopped with ice-cold 1xAMV Buffer (50 mM Tris-HCl pH 8.3, 50 mM KCl, 5 mM MgCl2) with 200 μg/ml cycloheximide before being separated on at 10–35% sucrose gradient in 1xAMV buffer with 0.5 mM spermidine and 1 mM DTT. 600 μl of each fraction (80S or 4–5-mer) was supplemented with 10 mM DTT. Then 10 U of AMV reverse transcriptase (Promega), 120 nmol dNTPs, and 120 pmol of a 5'[6-carboxyfluorescein (FAM)]-labeled primer (IDT-DNA) were added. Two primers specific to the endogenous beta-globin mRNA in RRL were used in separate reactions: 5′-(FAM)-GGACTCGAAGAACCTCTG (as in ref. [74]) annealed 136 nucleotides downstream of the AUG or 5′-(FAM)-[…] annealed to the end of the 3'-UTR. Primers were extended at 37 °C for 30 min, and then the reaction were extracted in 1:1 phenol:chloroform, supplemented with 1/10 volume of 3 M sodium acetate pH 5.2, and precipitated with 2.5 volumes of 100% ethanol. Pellets were resuspended in 10 μl of deionized formamide (Applied Biosystems) with 1/20 volume of a 35-500 nucleotide orange-dye labeled DNA size standard (MCLab) and loaded onto a 96-well plate. The samples were sent for fragment analysis by capillary electrophoresis to the UMass Chan Medical School Molecular Biology Core Laboratory using an ABI3730XL DNA Fragment Analyzer with capillaries loaded with POP-7 polymer and with an injection voltage of 12.5 kV. Data collection was performed with GeneMapper software (ABI). Data were exported as.fsa files and were analyzed (aligning to ladder and background correction) in GeneMarker 3.0.1 software (SoftGenetics) running in demo mode. Screen captures of traces were taken and traces were integrated using the “Quantification” feature and manually adjusting sliders to include the desired nucleotide range.

[5] = 30 nM 70S, 50 µM puromycin, 37 °C, read-out: apparent inhibition constant (Ki) of peptidyl transfer

Molecule: GR20 (poly-glycine-arginine, 20 repeats) (peptide)
- IC50 of translation of nanoluciferase mRNA in 33% rabbit reticulocyte lysate [1]: 425 nM
- IC50 of translation of nanoluciferase mRNA in 50% rabbit reticulocyte lysate [1]: 640 nM
- apparent inhibition constant (Ki) of peptidyl transfer from [35S]-fMet-tRNAfMet to puromycin on E. coli 70S ribosomes [2]: 164 nM

Molecule: N=C(N)NCCC[C@H](N)C(=O)O [L-arginine, reference compound]
- effect on peptidyl transfer on rabbit 80S (rabbit 80S ribosomes; 50 µM): does not
- effect on nanoluciferase translation in RRL ([3]; 100 μM): not inhibited
- effect on peptidyl transfer on 70S (E. coli 70S ribosomes; 50 µM (Supplementary Fig. 2b)): does not affect the peptidyl transfer reaction

Molecule: GRGRGRGR [GR4]
- Ki (E. coli 70S ribosomes; [5]): > 2000 nM
- effect on peptidyl transfer on 70S (E. coli 70S ribosomes; 2 µM): fail to inhibit peptidyl transfer

Molecule: PRPRPRPRPRPRPRPRPRPR [PR10]
- effect on peptidyl transfer on rabbit 80S (rabbit 80S ribosomes; 2 µM, n=2): no inhibition
- Ki (E. coli 70S ribosomes; source data of Fig. 3b, unit printed in the legend b16 only, read-out: Ki, app of fMet-Pmn release from 70S): 1050 nM

Molecule: C[C@@H]1C[C@@H]([C@H](O)CC2CC(=O)NC(=O)C2)C(=O)[C@@H](C)C1 [Cycloheximide]
- site of ribosome accumulation, toe-printing of polysome fractions [4]: accumulate within the open reading frame
- Ratio (START to CDS) [4]: 3.435
- Normalized ratio START/ORF [4]: 1.274
- normalized ratio START to CDS, MEAN ([4]; Fig. 2g): 0.5607
- normalized ratio START to CDS, MEAN ([4]; Fig. 2h independent repeat): 0.326
- IC50 [3]: 10 to 500 nM

Molecule: COC(=O)C[C@](O)(CCC(C)(C)O)C(=O)O[C@@H]1C(OC)=C[C@]23CCCN2CCc2cc4c(cc2[C@H]13)OCO4 [Harringtonine]
- site of ribosome accumulation, toe-printing of polysome fractions [4]: accumulate at the start codon
- Ratio (START to CDS) [4]: 6.47
- Normalized ratio START/ORF [4]: 2.399
- normalized ratio START to CDS, MEAN ([4]; Fig. 2g): 9.437
- normalized ratio START to CDS, MEAN ([4]; Fig. 2h independent repeat): 4.139
- IC50 [3]: 10 to 500 nM

Molecule: PRPRPRPR [PR4]
- Ki (E. coli 70S ribosomes; [5]): > 2000 nM
- effect on peptidyl transfer on 70S (E. coli 70S ribosomes; 2 µM): fail to inhibit peptidyl transfer

Molecule: PRPRPRPRPRPRPRPRPRPR [PR10 (poly-proline-arginine, 10 repeats)]
- apparent inhibition constant (Ki) of peptidyl transfer to puromycin on E. coli 70S ribosomes [2]: 1000 nM

B1: PR40: poly-PR peptide of 40 repeats (peptide)
peptide: PRPRPRPRPRPRPRPRPRPRPRPRPRPRPRPRPRPRPRPRPRPRPRPRPRPRPRPRPRPRPRPRPRPRPRPRPRPRPRPR
- Ki (rabbit 80S ribosomes; rabbit 80S): ≤ 30 nM
- Ki (E. coli 70S ribosomes; [5]): ≤ 30 nM

Molecule: GRGRGRGRGRGRGRGRGRGR [GR10 (poly-glycine-arginine, 10 repeats)]
- apparent inhibition constant (Ki) of peptidyl transfer to puromycin on E. coli 70S ribosomes [2]: 600 nM
